Drawing on patent publication US11672814B2, “NGNA compositions and methods of use” (priority 2008, dated 2023), this text covers Virus reduction and Sample titer for 1 compound.

For one test, the system named is HSV-1, SC-16. Description: Virucidal assay, HSV-1 titrated on Vero cells (CPE readout). The class given is cell-based, Herpes Simplex Virus type 1. Particulars: 10 minutes; for Sample titer: control virus titer 6.25.
In the next test the test system is Feline Calicivirus (FCV). In words: Virucidal assay, Norovirus surrogate virus titrated on CRFK cells (CPE readout). The class given is cell-based. Particulars: 10 minutes.
In another test the test system is HRV-16. Description: Virucidal assay, Rhinovirus titrated on Wi-38 cells (CPE readout). The class given is cell-based, Human Rhinovirus. Particulars: 10 minutes.
The subject of test [1] is Influenza B virus B/Malaysia/2506/2004. The class given is cell-based. Particulars: 10 minutes, MDCK.

Like-named read-outs stand apart in the source and are kept apart here.

For `O=C(CO)N[C@H]1[C@H]([C@H](O)[C@H](O)CO)O[C@](O)(C(=O)O)C[C@@H]1O` [NGNA, n-glycolylneuraminic acid], the Virus reduction with HSV-1, SC-16 (NGNA 10 nM) is given as 0.00%; in the test with HSV-1, SC-16 (NGNA 10 μM), 0.00%; in the test on HSV-1, SC-16 (NGNA 10 mM), 99.98%; in the test on Feline Calicivirus (FCV) (NGNA 10 nM), 0.00%; in the test with Feline Calicivirus (FCV) (NGNA 10 μM), 0.00%; in the test with Feline Calicivirus (FCV) (NGNA 10 mM) it was 82.21%. Moreover, the Virus reduction in the test on HRV-16 (NGNA 10 nM) turned out to be 90.00%; with HRV-16 (NGNA 10 μM) it was 90.00%; with HRV-16 (NGNA 10 mM) it was 99.44%; in test [1] (NGNA 10 nM) it was 0.00%; in test [1] (NGNA 10 μM), 0.00%; in test [1] (NGNA 10 mM), 99.00%. Moreover, the Sample titer amounted to 7.00 log10 TCID50/ml in the test on HSV-1, SC-16 (NGNA 10 nM); 6.25 log10 TCID50/ml with HSV-1, SC-16 (NGNA 10 μM); 2.50 log10 TCID50/ml in the test on HSV-1, SC-16 (NGNA 10 mM); 5.50 log10 TCID50/ml in the test on Feline Calicivirus (FCV) (NGNA 10 nM, control virus titer 5.50); 5.50 log10 TCID50/ml in the test with Feline Calicivirus (FCV) (NGNA 10 μM, control virus titer 5.50); 4.50 log10 TCID50/ml with Feline Calicivirus (FCV) (NGNA 10 mM, control virus titer 5.25). Moreover, the Sample titer is on record as 3.50 log10 TCID50/ml in the test on HRV-16 (NGNA 10 nM, control virus titer 4.50); 3.50 log10 TCID50/ml in the test on HRV-16 (NGNA 10 μM, control virus titer 4.50); 2.50 log10 TCID50/ml in the test with HRV-16 (NGNA 10 mM, control virus titer 4.75).
